From a melting point compilation (Tetko et al.; mined from patent text by program, amines drawn as free bases though some values may be those of a salt) come the findings set out here.

Each structure is given as a SMILES string. Residues, ends and D or L forms follow the SMILES beside them. *: point of attachment. NHPhenethyl = c1ccc(CCN*)cc1

With `CC[C@H](C)[C@H](NC(=O)[C@@H](N)CS)C(=O)NCCc1ccccc1` (H-Cys-Ile-NHPhenethyl), the melting point – broadly, the temperature, or range, at which the solid turns liquid – was 156 to 159 °C. Then `CCCCCCCCCCCCCCCCNc1ccc(C#N)cc1`, with 63 to 64 °C. Then `CC1(C)C=NC(C(NC(c2ccccc2)(c2ccccc2)c2ccccc2)C(=O)O)S1` (configuration not stated), with 180 to 182 °C. Then `COc1cc(C#N)c(N=C(C)N2CCc3cc(OC)c(OCc4ccccc4)cc3C2)cc1OC`, with 72 to 73 °C; and `C1=C2NCCN2C(c2ccccc2)c2ccccc2C1` (configuration not stated), with 200 to 201 °C; and `O=C(Nc1nc2ccc(Sc3nnc4ccc(-c5cccc(F)c5)cn34)cc2s1)C1CC1`, with greater than 260 °C. With `O=C(Nc1ccccc1)C1=NOCCS1`, the melting point fell in the range of 109 to 110 °C. Then `N#Cc1ccc(Oc2ccc(S(=O)(=O)NCc3ccc4ccccc4n3)cc2)c(Cl)c1`, with 83 to 86 °C.

Molecule `CS(=O)(=O)Nc1cccc(CC2c3ccccc3CCc3ccccc32)c1` came in with a melting point of 149 °C. Then `COc1ccc(Cc2nc3c(N)nc4ccccc4c3n2CCOc2ccccc2)cc1`, with 201 to 204 °C. Consider `CCOC(=O)CC(=O)c1ccc(F)c(Cl)c1`, for which the melting point is 39 to 40 °C.

In turn, `CC(=O)Nc1ccc2c(c1)/C(=N\NC(N)=O)C(=O)N2CCN(C(C)C)C(C)C` gave a melting point of 135 to 137 °C. Next, `COCc1nc(S)nc(O)c1OC`: 187 to 189 °C; `CCNC(=O)c1c(Cl)ccc(N(C)C)c1[Si](C)(C)C`: 179 to 180 °C; `NS(=O)(=O)c1cc(C(=O)O)cc(S)c1Oc1ccccc1`: 225 °C. Then `CNc1nc2c(s1)C(=O)CCC2`, with 180 to 182 °C; and `CC(C)c1cccc(C(C)C)c1N=c1cccc(-c2cccc3ccccc23)[nH]1`, with 142 to 144 °C.

Turning to `C(#Cc1cccc(-c2cnccn2)c1)c1ccncc1`, the melting point was in the range of 94 to 95 °C. Then `CC(CCC(=O)c1ccccc1)C1CC=C2C3=C(CCC21C)C1(C)CCC(O)C(C)(C)C1CC3` (configuration not stated), with 196 to 199 °C; and `COC(=O)c1ccc(C(=NO)c2ccc(C(=O)OC)cc2)cc1`, with 177 to 178 °C; and `Cc1cc(-c2c(O)c(=O)c2=O)c2c(C)ccc(C(C)C)cc1-2`, with 120 to 123 °C.

`O=Cc1ccc(-c2cccc(-c3ccc(OC(F)(F)F)cc3)n2)cc1` registered a melting point of 109 to 112 °C. Next, `Nc1ccccc1C(=O)c1ccncc1`: 153 to 161 °C. Then `CCCn1c(=O)c2[nH]c(-c3ccsc3)nc2n(CCC)c1=O`, with greater than 250 °C. For `CCCc1nn(C)c(C(N)=O)c1N`, the melting point was in the range of 96 to 98 °C. Then `CC(C(=O)O)c1ccc(-c2nc3ccccc3o2)cc1` (configuration not stated), with 174 to 178 °C. Then `COc1ccc(-c2csc(C)n2)cc1OC1CC2CCC1C2` (configuration not stated), with 81 to 82 °C. Next, `COC(=O)C1(C)CN(C(=O)Nc2ccc(C(F)(F)F)cc2)N=C1c1ccc(Cl)cc1` (configuration not stated): 143 to 146 °C; `O=C(O)CCc1oc2cc(O)ccc2c(=O)c1C(=O)O`: 218 to 219 °C.

Regarding `CCCn1c(=O)c2c(nn3cc(-c4cccc(OC)c4)[nH]c23)n(Cc2ccccc2)c1=O`, the melting point was in the range of 249 to 250 °C. Next, `O=C(O)c1nc(-c2cc(Oc3ccc(Cl)cc3Cl)c(O)cc2Cl)no1`: 115 °C.

In the case of `CCOC(=O)c1c(C)nc(Cl)c([N+](=O)[O-])c1NC(C)(C)C`, the melting point lay within 35 to 36 °C. Then `CC1(C)C=Cc2c(c3ccccc3n(Cc3ccccc3)c2=O)O1`, with 91 to 92 °C. With `CCOC(=O)c1c(Cl)ccc(C(=O)O)c1Cl`, the melting point was determined as 168 °C. Then `CCCCc1nc(NC(C)=O)[nH]c(=O)c1Cc1ccc(-c2ccccc2-c2nnn[nH]2)cc1`, with 205 to 208 °C; and `CCOC(=O)c1ccc(Cl)c(S(=O)(=O)Cl)c1`, with 143 to 145 °C; and `Cc1ccccc1NC(=O)Nc1ccc(CC(=O)ON2C(=O)CCC2=O)cc1`, with 211 to 212 °C. Next, `CC(C)(C)c1cc(CNc2cccc(Br)c2CO)c(C(=O)O)s1`: 68 to 69 °C; `Cc1cc(-c2ncn(Cc3ccc(F)cc3)n2)sc1C(=O)NCc1cccnc1`: 154 to 155 °C.

Consider `O=C1Nc2ccccc2S(=O)(=O)c2ccccc21`, for which the melting point fell in the range of 284 to 286 °C.

For the molecule `CCCC1=C(C(=O)OCC)SCCS1=O` (configuration not stated), the melting point was 109 to 110 °C.

In turn, `Cc1nc(C=O)c(C)[nH]1` yielded a melting point of 164 to 166 °C. `CCC1(CCCCN2CC=C(c3ccc(Cl)cc3)CC2)C(=O)Nc2ccccc21` (configuration not stated) returned a melting point of 142 to 145 °C. Then `C/C(=C\CCl)n1ncc(-c2ccc(S(N)(=O)=O)cc2)c(-c2ccc(F)cc2)c1=O`, with 152 to 154 °C. Next, `CCN(CC)c1cccc(COc2ccc(N)nn2)c1`: 115 to 118 °C. In the case of `Cc1cc(OCCNC(=O)C2Cc3ccccc3N2S(=O)(=O)c2ccc(-c3cc(C(F)(F)F)ccc3Cl)cc2)ccc1CC(=O)O` (configuration not stated), the melting point was 110 to 115 °C.

`CCc1[nH]n(-c2c(Cl)cc(C(=O)O)cc2Cl)c2nc(Cc3ccc(OC)cc3)nc(=O)c1-2` returned a melting point of 277 °C. Next, `OC(c1ccc(F)cc1)(c1ccc(F)cc1)C1SCSCS1`: 124 to 125 °C; `Cc1c(CO)ncnc1N1CCOCC1`: 66 to 68 °C. For the molecule `c1ccc(C2CCc3ccccc3S2)cc1` (configuration not stated), the melting point lay within 45 to 49 °C. For `O=C(OCC1OC(n2cc(F)c(=O)[nH]c2=O)C(O)C1OC(=O)c1ccccc1)c1ccccc1` (configuration not stated), the melting point is 93 to 97 °C. Next, `Nc1nc(-c2ccncc2)nc2c1c([N+](=O)[O-])nn2C1CCCC1`: 239 to 241 °C; `CC1CC2C3CCC4=CC(=O)C=CC4(C)C3=CCC2(C)C1C(=O)CN1CCN(c2cc(N3CCCC3)nc(NC34CC5CC(CC(C5)C3)C4)n2)CC1` (configuration not stated): 155 to 172 °C. Next, `CCOc1cc([N+](=O)[O-])ccc1N1C(=O)c2ccccc2C1=O`: 204 to 206 °C; `CN(C)Cc1ccc(CSCCNC(=O)NCCCN(C)CCN(Cc2ccc(F)cc2)c2ccccn2)o1`: 102 °C.

Take `COC(=O)C1=C(C(OC)OC)NC(C)=C(c2nc(CCl)no2)C1c1cccc([N+](=O)[O-])c1` (configuration not stated): the melting point lay in the range of 141 to 142 °C. Next, `COc1ccc(CN2C(=O)C3(COc4cc5c(cc43)CCO5)c3ccccc32)cc1` (configuration not stated): 120 to 121 °C. On to `O=C(O)CCC(CCNCCc1ccccc1)n1nc(Cc2ccc(F)cc2)c2ccccc2c1=O` (configuration not stated), for which the melting point is 190 to 191 °C. Next, `CCNc1ccc(SSc2ccc(NCC)cc2C(=O)NC(C(=O)O)C(C)CC)c(C(=O)NC(C(=O)O)C(C)CC)c1` (configuration not stated): 97 to 100 °C; `CCOC(=O)c1cc(N)c(N)nc1C(=O)OCC`: 143 to 146 °C. Next, `CCN(C=O)c1ccccc1C(=O)COC(=O)c1ccccc1`: 78 to 80 °C; `O=C(NC1=Cc2cncn2CN=C1)c1ccccc1`: 158 to 160 °C.
